In one data set the target is T1, CYP2B6 (Homo sapiens, UniProt P20813).
T1 sequence (P20813 whole entry): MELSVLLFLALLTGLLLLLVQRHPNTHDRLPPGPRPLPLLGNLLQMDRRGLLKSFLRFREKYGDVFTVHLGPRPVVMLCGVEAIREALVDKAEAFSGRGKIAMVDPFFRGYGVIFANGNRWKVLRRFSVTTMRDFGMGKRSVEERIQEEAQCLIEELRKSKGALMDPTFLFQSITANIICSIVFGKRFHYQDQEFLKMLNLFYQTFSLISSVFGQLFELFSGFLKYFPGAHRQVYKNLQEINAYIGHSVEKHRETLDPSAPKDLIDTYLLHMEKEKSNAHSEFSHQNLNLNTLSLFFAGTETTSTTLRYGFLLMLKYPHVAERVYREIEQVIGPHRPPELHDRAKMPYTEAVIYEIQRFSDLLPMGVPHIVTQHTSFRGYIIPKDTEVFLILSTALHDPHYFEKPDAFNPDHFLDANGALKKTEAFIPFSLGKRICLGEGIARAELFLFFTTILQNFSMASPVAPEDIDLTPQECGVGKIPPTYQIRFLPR
In words: Induction of CYP2B6 activity in human donor hepatocytes assessed as hydroxybupropion formation after 48 hrs by LC/MS method. The data set is classed as ADME, cell-based, Hepatocyte. Conditions: probe bupropion (hydroxybupropion formation measured).

In a further data set the test system is Hepatocyte. Briefly: Induction of CYP2B6 mRNA expression in human donor hepatocytes after 48 hrs by real-time PCR method. The data set is classed as ADME, cell-based.

Consider `NC(=O)N1c2ccccc2C=Cc2ccccc21` [CARBAMAZEPINE], for which the EC50 (in general, the concentration that produces a half-maximal response) at 48 h on CYP2B6 was found to be 145 µM. This compound also gave an EC50 in the data set on Hepatocyte of 26 µM.
For `CO[C@H]1/C=C/O[C@@]2(C)Oc3c(C)c(O)c4c(O)c(c(/C=N/N5CCN(C)CC5)c(O)c4c3C2=O)NC(=O)/C(C)=C\C=C\[C@H](C)[C@H](O)[C@@H](C)[C@@H](O)[C@@H](C)[C@H](OC(C)=O)[C@@H]1C` [RIFAMPIN] the same measures were 1.3 µM and 0.98 µM.
For `C[C@]12CC[C@@H]3c4ccc(O)cc4CC[C@H]3[C@@H]1CC[C@@H]2O` [ESTRADIOL] the same measures were 4.1 µM and 1.9 µM.

The record behind these values is ChEMBL document CHEMBL3525948, “Quantitative prediction of CYP2B6 induction by estradiol during pregnancy: potential explanation for increased methadone clearance during pregnancy” (Drug Metab Dispos, 2013).
